Test results published in US5574059A, “Treating disorders mediated by vascular smooth muscle cell proliferation” (priority 1995, dated 1996).
Where two headings read alike, the source gives them in different places.

Assays:
[1] = test system: rat aortic smooth muscle cells; assay: antagonism of the antiproliferative effect in serum-stimulated smooth muscle cells; assay type: cell-based; conditions: Rattus norvegicus; in presence of tolazoline 100 μM; read-out: IC50 of idazoxan in presence of tolazoline
Protocol: Inhibition of serum-stimulated proliferation of rat aortic smooth muscle cells is determined as follows: The antiproliferative effect of potential drug is determined by measuring the incorporation of ^3 H-thymidine into cellular DNA. Exposure of quiescent vascular smooth muscle cell to serum, which contains many growth factors, results in a large increase in cellular proliferation as measured by ^3 H-thymidine incorported into DNA. The inhibitory effect of potential drug on serum-stimulated proliferation is tested by adding a drug before the addition of serum and determining if the serum-stimulated proliferation is reduced. […] In that event, antagonizing of the antiproliferative effect of idazoxan is determined by adding antagonist before the addition of idazoxan to serum-stimulated vascular smooth muscle cells.
After 48 hours, the cells were starved in 0.5% FCS for another 48 hours to decrease proliferation and induce quiescence. The medium was replaced by serum-free medium 24 hours prior to addition of drug (drugs are described below) and 10% fetal calf serum or only 10% fetal calf serum in the case of the control. The cells were then incubated for 24 hours and ^3 H-thymidine (1 μCi/well) was added at hour 20. At the end of the 24 hour period, the medium was aspirated and the cells were washed three times with phosphate-buffered saline and twice with ice-cold trichloroacetic acid. Fixed cells were then solubilized in 0.2M NaOH and sonicated. A 100 μl aliquot was used for scintillation counting.
To test this, the effect of tolazoline (100 μM) on the concentration/response curve was determined.

rat carotid artery = assay: balloon angioplasty of rat left common carotid artery; assay type: in vivo; conditions: 10 mg/kg/24hr for 7 days, s.c. minipump
Protocol: To determine the actions of idazoxan in inhibiting the proliferation of vascular smooth muscle cells in vivo, we tested the effect of balloon angioplasty in rat carotid artery. Left common carotid artery balloon angioplasty was performed as described by Ohlstein et al, Proc. Natl. Acad. Sci. 90, 6189-6193 (1993). Rats were implanted, subcutaneously, with Alzet minipumps (1 μl/hr delivery rate) containing idazoxan to deliver a dose of 10 mg/kg/24hr for 7 days. Control rats were implanted with minipumps containing sterile saline. Ballon angioplasty of left common carotid artery was performed on fourth day of idazoxan administration and animals were sacrificed 10 days after the surgery. Left and right common carotid arteries were removed, cross-sections (10 μm) were cut in a cryostat and stained with eosin and hematoxylin. Blood vessel layers were quantitated in an imaging system and the ratio of internal and external diameters were calculated.

[2] = Example IV: patient with fibromuscular dysplasia of the renal artery, angioplasty; assay type: in vivo, human
I2 imidazoline receptors = assay: inhibition of 3H-idazoxan (5 nM) binding to rat aortic smooth muscle cell membranes; conditions: 3H-idazoxan 5 nM
Protocol: Binding to I2 imidazoline receptors is determined by the following assay. Membranes are prepared from cultured cells for ligand binding as described in Regunathan, S., et al, Biochem. Pharmacol. 45, 1667-1675 (1993) and Regunathan, S., et al, J. Neurosci. Res. 34, 681-688 (1993) and the disclosure in these on this is incorporated herein by reference. In particular, harvested rat aortic smooth muscle cells are homogenized in Hepes-sucrose buffer (pH 7.4) with a Teflon-glass homogenizer and centrifuged at 1000 × g for 10 minutes. The pellets are suspended in ice-cold Tris-HCl buffer (pH 7.7) with 5mM ethylene diamine tetracetic acid and homogenized using a Polytron (Brinkman Instruments) for 10 seconds. The homogenate is centrifuged at 40,000 × g for 30 minutes to produce a membrane pellet. The membrane pellet is washed three times by resuspending in buffer and re-centrifuging. The washed pellet is suspended in fresh Tris-HCl buffer (pH 7.4) to provide approximately 100 μg protein per assay tube. Binding assays are performed in Tris-HCl buffer (pH 7.7) using 5 nM of […]. Non-specific binding is defined by 100 μM of unlabelled idazoxan which will inhibit the specific binding of ^3 H-idazoxan. Thus the binding remaining in the presence 100 μM of idazoxan is due to non-specific binding and this will be substracted from total binding to calculate the specific binding. Following incubation at 25° C. for 30 minutes, reaction is terminated by rapid vacuum filtration over Whatman GF/B filters and washed with 10 ml of ice-cold buffer. Filters are suspended in scintillation fluid and radioactivity counted in a liquid scintillation counter. Membrane protein is assayed by Coomassie Blue method (Pierce) using bovine serum albumin as standard.
Determination of inhibition constant (Ki) for each drug is determined as follows: The binding of ^3 H-idazoxan to membranes of vascular smooth muscle cells is determined in the presence of 0.1 nM to 100 μM concentrations of potential drug. The percent inhibition of specific binding of ^3 H-idazoxan by each concentration is calculated and plotted against concentration. The data is analyzed by non-linear curve fitting program, LIGAND and the IC50 value for each potential drug is calculated. The affinity for each drug (Ki) for I2 imidazoline receptors is calculated using the formula Ki =IC50 /1+L/Kd where L is the concentration of ^3 H-idazoxan used for binding and Kd is the dissociation constant for ^3 H-idazoxan for I2 imidazoline receptors. The dissociation constant (Kd) is determined by Scatchard analysis of the saturation binding of ^3 H-idazoxan using the formula [formula] where B and F are the amount of bound and free ligand, respectively, and Bmax is the number of binding sites.
Primary cultures of rat-aortic smooth muscle cells were prepared by a modification (described in Erlinge, Do, et al, Am. J. Physiol. 265, H1089-1097, 1993) of the method of Meyer-Lehnert and Schrier (Meyer-Lehnert, H., et al, Hypertension 13,350-361, 1989), the disclosure of these cited articles being incorporated herein by reference. Briefly, rats were killed by anesthetic overdose and the aorta were removed and incubated with collagenase (2 mg/ml) in Dulbecco's modified Eagle's minimum essential medium (DMEM). The vessel was stripped of adventitia, cut longitudinally and the intima scraped away. After further collagenase treatment, the remaining tissue was passed 20 times through 18 and 16 gauge needles. The resulting cell suspension was centrifuged at 500 × g for 5 minutes and resuspended in DMEM containing penicillin (100 units/ml), streptomycin (100 μg/ml), 2 mM L-glutamine and 10% fetal calf serum. The suspended cells were plated in T-75 flasks, cultured until confluent, and subcultured in 100 mm plates. The confluent cells were harvested and membranes were prepared. Cell viability was determined by trypan blue exclusion.

[3] = Example II: patient with narrowing of right common carotid artery, balloon angiography; assay type: in vivo, human; conditions: idazoxan 50 or 75 mg/day two weeks before and 3 months after balloon angiography; UK 14,304 125, cirazoline 60, naphazoline 125, agmatine 900 mg/day
Protocol: A person presents with a history of intermittent brief episodes of transient monocular blindness in the right eye associated with clumsiness and weakness of the left arm and leg. Angiography indicates substantial narrowing of the right common carotid artery. They are with treated with idazoxan at a dosage of 50 or 75 mg/day for two weeks preceding balloon angiography and for 3 months thereafter.

c1ccc2c(c1)OCC(C1=NCCN1)O2 (stereo not drawn) [Idazoxan, 2-[2-(1,4-benzodioxanyl)]-2-imidazoline]
IC50 [1]: 55000 nM | internal/external diameter ratio, non-injured right common carotid artery vs control (rat carotid artery): no significant difference | internal/external diameter ratio of lesion side as percent of control side (rat carotid artery; 10 days after surgery, saline control 21.9 ±3.3): 6.5 ±3.4% | lesion side as percent of control side vs saline, in words (rat carotid artery; injured left common carotid artery): significant decrease | blood pressure ([2]; idazoxan 75 mg/day for 1 month followed by angioplasty with continued treatment): rapid fall of blood pressure to normal | re-elevation of pressure / restenosis of the renal artery ([2]; idazoxan 75 mg/day, UK 14,304 60, naphazoline 125, cirazoline 60, agmatine 900 mg/day): without evidence months later on re-elevation of pressure or on follow up, of restenosis of the renal artery | Ki (I2 imidazoline receptors; "about", read-out: Ki, inhibition of 3H-idazoxan binding): ~10 nM | Ki (I2 imidazoline receptors; Table 2, rat aortic smooth muscle cell membranes, read-out: Ki): 8.5 ± 0.35 nM | symptoms and restenosis of the vessel [3]: Symptoms disappear without evidence of restenosis of the vessel
